Data as given in patent publication US7855166B2, “Sulfonylamino(thio)carbonyl compounds” (Bayer Cropscience GmbH, priority 2005, dated 2010).

What was measured:
[1] = tested on: weed plants such as Sinapis alba, Echinochloa crus-galli, Lolium multiflorum, Chrysanthemum segetum, Setaria viridis, Abutilon theophrasti, Amaranthus …; assay: Post-emergence effect on weeds (greenhouse pot test, visual scoring); type: in vivo; conditions: applied post-emergence (three-leaf stage) at a rate of 0.3 kg or less of active substance per hectare; scored after about 3 to 4 weeks in comparison to untreated controls
[2] = tested on: weed plants such as Sinapis alba, Chrysanthemum segetum, Avena sativa, Stellaria media, Echinochloa crus-galli, Lolium multiflorum, Setaria viridis, Abutilon …; assay: Pre-emergence effect on weeds (greenhouse pot test, visual scoring); type: in vivo; conditions: applied pre-emergence at a rate of 0.3 kg or less of active substance per hectare; scored after 3 to 4 weeks in comparison to untreated controls

| Compound | herbicidal action against weed plants (effect scored visually) [1] | herbicidal action against weed plants (visual scoring of plant damage or emergence damage) [2] |
| --- | --- | --- |
| CCCOc1nn(C(=O)NS(=O)(=O)c2c(I)cccc2OS(C)(=O)=O)c(=O)n1C1CC1 [Compound 1.718] | very good herbicidal action | very good herbidical action |
| COc1nn(C(=O)NS(=O)(=O)c2ccc(C(F)(F)F)cc2I)c(=O)n1C1CC1 [Compound 1.896] | very good herbicidal action | very good herbidical action |
| COc1nn(C(=O)NS(=O)(=O)c2c(I)cccc2OC(C)C)c(=O)n1C [Compound 1.251] | very good herbicidal action | very good herbidical action |
| CCCOc1cccc(I)c1S(=O)(=O)NC(=O)n1nc(OCC)n(C2CC2)c1=O [Compound 1.241] | very good herbicidal action | very good herbidical action |
| COc1nn(C(=O)NS(=O)(=O)c2c(I)cccc2OC(C)C)c(=O)n1C1CC1 [Compound 1.258] | very good herbicidal action | very good herbidical action |
| CCOc1cccc(I)c1S(=O)(=O)NC(=O)n1nc(OC)n(C2CC2)c1=O [Compound 1.218] | very good herbicidal action | very good herbidical action |
| CC(C)Oc1nn(C(=O)NS(=O)(=O)c2c(I)cccc2OC(C)C(F)(F)F)c(=O)n1C (stereo not shown) [Compound 1.527] | very good herbicidal action | very good herbidical action |
| COc1nn(C(=O)NS(=O)(=O)c2c(I)cccc2SC)c(=O)n1C [Compound 1.579] | very good herbicidal action | very good herbidical action |
| COc1nn(C(=O)NS(=O)(=O)c2c(I)cccc2OCC2CC2)c(=O)n1C1CC1 [Compound 1.353] | very good herbicidal action | very good herbidical action |
| Cc1ccc(S(=O)(=O)NC(=O)n2nc(OC(C)C)n(C)c2=O)c(I)c1F [Compound 1.858] | very good herbicidal action | very good herbidical action |
| CCCCOc1cccc(I)c1S(=O)(=O)NC(=O)n1nc(OCCC)n(C)c1=O [Compound 1.275] | very good herbicidal action | very good herbidical action |
| COc1nn(C(=O)NS(=O)(=O)c2c(I)cccc2OCC(F)(F)F)c(=O)n1C [Compound 1.481] | very good herbicidal action | very good herbidical action |
| CCCOc1nn(C(=O)NS(=O)(=O)c2c(C)cccc2I)c(=O)n1C [Compound 1.039] | very good herbicidal action | very good herbidical action |
| CCOc1nn(C(=O)NS(=O)(=O)c2c(F)cccc2I)c(=O)n1C1CC1 [Compound 1.027] | very good herbicidal action | very good herbidical action |
| Cc1cc(I)c(S(=O)(=O)NC(=O)n2nc(OC(C)C)n(C)c2=O)cc1C [Compound 1.865] | very good herbicidal action | very good herbidical action |
| CCCOc1nn(C(=O)NS(=O)(=O)c2c(I)cccc2OS(=O)(=O)N(C)C)c(=O)n1C [Compound 1.751] | very good herbicidal action | very good herbidical action |
| CCCCOc1cccc(I)c1S(=O)(=O)NC(=O)n1nc(OCCC)n(C2CC2)c1=O [Compound 1.280] | very good herbicidal action | very good herbidical action |
| CCCOc1nn(C(=O)NS(=O)(=O)c2c(I)cccc2OC(F)F)c(=O)n1C [Compound 1.464] | very good herbicidal action | very good herbidical action |
| CCOc1nn(C(=O)NS(=O)(=O)c2c(I)cccc2OC(F)F)c(=O)n1C [Compound 1.463] | very good herbicidal action | very good herbidical action |
| COc1nn(C(=O)NS(=O)(=O)c2c(F)cccc2I)c(=O)n1C [Compound 1.021] | very good herbicidal action | very good herbidical action |
